Source: patent US12479823B2, “Compound for use in retinal diseases” (ZHUHAI UNITED LABORATORIES CO., LTD., priority 2018, dated 2025)

Experiments:
[1] = In vitro aldehyde capture capacity test (complexing with nonanal, HPLC at 254 nm)
Description: Objective: dry eye disease is caused by inflammation in eyes, wherein the inflammation may produce aldehydes that will accelerate the inflammation symptoms and worsen the dry eye disease if not eliminated in time. In the experiment, a better compound was selected according to the complexing capacity of the drug and aldehydes in vivo by simulating the in vivo environment.
Procedures: Sulfobutyl-B-cyclodextrin (310 mg) was dissolved in a phosphate buffer (1.25 mL) to prepare a solution.
Nonanal (5.0 mg, 32 μmol, 1.0 eq) and triolein (300 mg) were added to a reaction flask at room temperature, after addition of the prepared solution described above, linoleic acid (300 mg) was added, and finally a dimethyl sulfoxide (0.15 ml) solution containing the compound (32 μmol, 1.0 eq) of the present disclosure was added; the reaction solution was reacted at 20-23° C.
The reaction solution was reacted under stirring for 10 min, 100 min, 200 min, and 300 min respectively, and sampled for high performance liquid chromatography after the solution was stratified after standing for 2 min.
Sampling method: 25 μl of an upper emulsified layer and 50 μl of a lower aqueous phase were sampled by a pipette, and samples were diluted with 1 mL of methanol.
The ultraviolet absorption of the nonanal was weak at 254 nm, so the nonanal had little overall effect on the content of complexed products. Therefore, the percentage contents of complexes at 254 nm under high performance liquid chromatography were compared to observe aldehyde capture and complexing capacities, as shown in FIG. 1 and Table 1:
Taking The compound 7 as an example, after 300 min of reaction, the analytical method for HPLC was XBRIGE 2.5 μm, 3.0*100 mm 5-80CD_XBEH_12 min_0.8.1 cm;
Retention time 6.689 min, 6.787 min, 6.966 min, and 7.102 min were absorption peaks of products complexed with monomolecular aldehyde;
Retention time 8.905 min, 9.010 min, and 9.075 min were absorption peaks of products complexed with bimolecular aldehyde.

[2] = Pharmacokinetics in Beagle dogs, single intravenous injection; assay type: in vivo; settings: male, dog, plasma, 1 mg/kg single intravenous injection
Description: Objective: To Study Pharmacokinetics of the Compound in Beagle Dogs
Experimental Material: Beagle Dogs (male, 8-11 kg, greater than or equal to 6 months, Marshall)
Pharmacokinetic profiles of the compound were tested by intravenous administration in […] according to the standard protocol. In the study, the candidate compound was prepared as a clear solution, and was administered to Beagle dogs at 1 mg/kg by single intravenous injection. A vehicle for intravenous injection was a 10% hydroxypropyl ß-cyclodextrin aqueous solution. Whole blood samples were collected at 0.033, 0.083, 0.25, 0.5, 1, 2, 4, 8, 12, and 24 hours, respectively, centrifuged at 3000 r for 10 min, and separated from supernatant to obtain plasma samples. 20 μL of plasma samples were mixed with 400 μL of acetonitrile precipitated proteins containing an internal standard, and 2 μL of the supernatant was injected by centrifugation. Plasma concentrations were quantified by LC-MS/MS analysis, and pharmacokinetic parameters, such as clearance, half-life, and area under the concentration-time curve, etc. were calculated.

**Q.** Which results are given for `CC(C)(O)c1ccc(-c2cnc(C(C)(C)O)c(N)c2)cc1N` [Compound 3]?
**A.** percentage content of complexed products at 254 nm ([1]; Time 10 min): 3.265%; percentage content of complexed products at 254 nm ([1]; Time 100 min): 10.569%; percentage content of complexed products at 254 nm ([1]; Time 200 min): 17.191%; percentage content of complexed products at 254 nm ([1]; Time 300 min): 22.182%; Area under the curve AUC ([1]; nonanal 1.0 eq, compound 1.0 eq, 20-23° C., 10-300 min, HPLC 254 nm): 3979 min. Conversion; Slope (linear equation of percentage content of complexed products vs time) ([1]; nonanal 1.0 eq, compound 1.0 eq, 20-23° C., 10-300 min, HPLC 254 nm, in %/min): 0.0652; clearance [2]: 15 mL/min/kg; AUC ([2]; read-out: Area under the concentration-time curve AUC): 3.71 µM·h; half-life ([2]; read-out: Half-time T1/2 (converted)): 2.17 h
